# Tested on: ⍺4β7
# Assay: SPR: inhibition by linear peptides of soluble ⍺4β7 binding to a gp120 V2 (cV2 92TH023) surface
# Conditions: Fig 7C, 7E
# Text: To determine if this is the case, we employed an SPR -based assay. Biosensor surfaces were coated with either CD4 D1D2 or a 42 aa cyclic V2 peptide derived from the subtype E 92TH023 gp120 (cV2 92TH023). A third surface coated with MAdCAM-Ig was employed as a positive control. Soluble ⍺4β7 was passed over these surfaces. We then evaluated the capacity of staggered 15 aa peptides that span either CD4 D2 or gp120 V2 to inhibit this interaction (Fig 7A).
# Fig 7 Reciprocal inhibition of gp120 V2 and CD4 binding to ⍺4β7 by D2 and V2 peptides. SPR measurements of soluble ⍺4β7 (analyte) binding to biosensor surfaces coated with CD4 D1D2, 92TH023 cyclic peptide, or MAdCAM-Ig in the absence or presence of either CD4 D2 or gp120 V2 peptides, as indicated. (A) List of overlapping 15 aa peptides corresponding to residues 157–187 of CD4 and residues 158–192 of gp120 V2 (subtype B consensus sequence). (B) Binding of ⍺4β7 to sCD4 D1D2 +/- CD4 D2 peptides. X-axis indicates ⍺4β7 mass bound (RU) at the end of the association phase. (C) Binding of ⍺4β7 to 92TH023 +/- gp120 V2 peptides. (D) Binding of ⍺4β7 to sCD4 D1D2 +/- gp120 V2 peptides. (E) Binding of ⍺4β7 to 92TH023 +/- CD4 D2 peptides. […]
# Experiments were performed using a Biacore 3000 instrument (Cytiva Life Sciences) using CM4 or CM5 sensor chips. The data were evaluated using BIAevaluation 4.1.1 software (Cytiva Life Sciences). […]
sequence,measurement,value
"QKKVEFKIDIVVLA [CD4 P42, linear CD4 D2 peptide, residues 165-178, G β-strand]",inhibition of gp120 binding to ⍺4β7 (in words),inhibits gp120 binding to ⍺4β7

# — article PMC10732398 (PLOS Pathogens, 2023)
